Laboratory results as given in the NIST ThermoML archive (doi:10.1021/acs.jced.7b00039).
Numbers after ± are expanded uncertainties.

Test: wn = mass fraction of the nth substance listed
Conditions: 100 kPa, Liquid; for viscosity: Cone and plate viscometry; for mass density: Vibrating tube method

CC(CC(C)(C)C)CP(=O)([O-])CC(C)CC(C)(C)C.CCCCCCCCCCCCCC[P+](CCCCCC)(CCCCCC)CCCCCC + CCCC(=O)O
Conditions | mass density, 298 K [kg/m3] | mass density, 310 K [kg/m3] | mass density, 318 K [kg/m3] | viscosity, 298 K [mPa·s] | viscosity, 310 K [mPa·s] | viscosity, 318 K [mPa·s]
w2 = 0 | 884.09 ± 9.7 | 876.93 ± 9.6 | 872.2 ± 9.5 | 1023 ± 120 | 521 ± 59 | 345 ± 38
w2 = 0.0122 | 886.44 ± 9.7 | 879.26 ± 9.6 | 874.5 ± 9.5 | 952 ± 110 | 465 ± 52 | 304 ± 33
w2 = 0.0346 | 892.23 ± 9.7 | 884.71 ± 9.6 | 879.8 ± 9.5 | 785 ± 90 | 389 ± 43 | 257 ± 28
w2 = 0.0349 | 889.81 ± 9.6 | 882.5 ± 9.6 | 877.64 ± 9.5 | 787 ± 91 | 388 ± 43 | 255 ± 28
w2 = 0.0684 | 893.84 ± 9.6 | 886.39 ± 9.5 | 881.5 ± 9.5 | 562 ± 63 | 278 ± 30 | 185 ± 20
w2 = 0.14 | 899.77 ± 9.5 | 892.33 ± 9.4 | 887.48 ± 9.4 | 348 ± 38 | 181 ± 19 | 123 ± 13
w2 = 0.242 | 909.13 ± 9.5 | 901.49 ± 9.4 | 896.4 ± 9.3 | 216 ± 23 | 118 ± 12 | 82.2 ± 8.5
w2 = 0.301 | 914.05 ± 9.4 | 906.22 ± 9.3 | 901 ± 9.3 | 159 ± 17 | 87.9 ± 9.1 | 62.1 ± 6.4
w2 = 0.375 | 919.8 ± 9.4 | 911.62 ± 9.3 | 906.17 ± 9.3 | 92.7 ± 9.6 | 53.5 ± 5.5 | 38.9 ± 4
w2 = 0.44 | 924.13 ± 9.4 | 915.64 ± 9.3 | 909.99 ± 9.2 | 56.9 ± 5.9 | 34.4 ± 3.5 | 25.5 ± 2.6
w2 = 0.491 | 927.26 ± 9.4 | 918.52 ± 9.3 | 912.71 ± 9.2 | 38.8 ± 4 | 24.6 ± 2.5 | 18.8 ± 1.9
w2 = 0.715 | 939.25 ± 9.4 | 929.27 ± 9.3 | 922.63 ± 9.3 | 7.55 ± 0.79 | 5.51 ± 0.56 | 4.56 ± 0.47
w2 = 0.991 | 953.5 ± 9.5 | 941.63 ± 9.4 | 933.77 ± 9.3 | 1.69 ± 0.17 | 1.39 ± 0.14 | 1.23 ± 0.12
